How the values were obtained:
SD rats = test: Respiratory depression in rats, arterial blood gas PCO2; format: in vivo; details: for PCO2, 5 min before administration: arterial blood; for PCO2, 5 min after administration / PCO2, 30 min after administration / PCO2, 60 min after administration / PCO2, 120 min after administration: intravenous single dose 0.3 mg/kg (morphine 24 mg/kg)
[1] = test system: rat surgical incision injury model; test: Rat surgical incision injury model, von Frey paw withdrawal threshold; format: in vivo, SD rats; details: rats, intravenous 0.3 mg/kg
Excerpt: 8-week-old male SD rats weighing 200 g-300 g were used as experimental animals to determine the effect of the compound of Example H02, the compound of Example H04, the compound of Example H10, the compound of Example H16, the compound of Example H17, the compound of Example H18, the compound of Example H21 and the compound of Example H24 on surgical pain in rats after intravenous administration. The analgesic effect of the compounds was discussed.
A certain amount of the compounds or TRV130 (MCE, 15150) was weighed, and dissolved in ethanol/castor oil/water=10/10/80 as a clear and transparent solution.
Three days after the rats were acclimatized to the experimental environment, the preoperative base value was determined, and followed by the surgical pain operation described below, about 24 hours after the surgery, the basic value was measured before administration on all animals, and mechanically hypersensitive animals (the paw withdrawal threshold (PWT) was less than 5 g) was randomly assigned to each administration group according to PWT. The pain threshold was determined 30 minutes and 60 minutes after intravenous administration of the positive drug TRV130 or each compound of the present invention (at a dose of 0.3 mg/kg).
The surgical procedure was performed aseptically, and the surgical instruments (scissors, tweezers, scalpels, surgical cotton and sutures) were sterilized before surgery. The animals were anesthetized with sodium pentobarbital (50 mg/kg, injected intraperitoneally), and the toes of the animals were squeezed to confirm that the animals were completely anesthetized before surgery. From the position of 0.5 cm away from the heel, an incision about 1 cm was made in the longitudinal direction of the toe. After cutting the skin, the musculus flexor digitorum brevis was raised and a blunt injury was caused longitudinally. After pressing to stop bleeding, the wound was sutured. When the animal was completely awake (free to move), the animal was put back into the cage (the reference of the construction of surgical pain model: Timothy J. Brennan, Erik P. Vandermeulen, G. F. Gebhart. Characterization of a rat model of incisional pain. Pain, 64(1996):493-501).
An up-down method was used for the determination of pain sensitivity. The mechanical pain results were expressed as animal paw withdrawal response threshold (PWT). The rat was placed separately in a plexiglass box with a mesh at the bottom of the box to ensure that the rat's feet could be tested. The rat was acclimatized for 15 minutes before the test, and after the acclimatization, the test fiber (von frey fiber, West coast) was used to test in the middle part of the hind foot of the rat. The test fibers included 8 test strengths: 3.61 (0.4 g), 3.84 (0.6 g), 4.08 (1 g), 4.31 (2 g), 4.56 (4 g), 4.74 (6 g), 4.93 (8 g), and 5.18 (15 g). During the test, the test fiber was pressed vertically against the skin and a force was applied to bend the fiber for 6-8 seconds, at an interval of 5 seconds between each test. During the test, the animal's rapid withdrawal was recorded as a pain response. When the test fiber left the animal's skin, the animal's withdrawal was also recorded as a pain response. Starting from 2 g, depending on whether the rats had any pain response, the test was changed into the next test intensity or the previous test intensity. A series of responses of the rats to different test intensities were recorded. […] Wherein, Xf was the logarithmic value of von Frey fiber used in the last test, and K value was the animal withdrawal reaction mode (recorded during the test), which was the value obtained after looking up the table according to the obtained sequence of “X” and “O”, δ=Mean of logarithmic difference between von Frey fibers used in the test.

μ opioid receptor (MOR) = target: T1, μ opioid receptor (MOR) (Homo sapiens, UniProt P35372); test: cell-based; details: HEK293 stably expressing μ opioid receptor, FLIPR calcium
T1 construct: host or cells: HEK293
T1 sequence (P35372 whole entry, species assumed): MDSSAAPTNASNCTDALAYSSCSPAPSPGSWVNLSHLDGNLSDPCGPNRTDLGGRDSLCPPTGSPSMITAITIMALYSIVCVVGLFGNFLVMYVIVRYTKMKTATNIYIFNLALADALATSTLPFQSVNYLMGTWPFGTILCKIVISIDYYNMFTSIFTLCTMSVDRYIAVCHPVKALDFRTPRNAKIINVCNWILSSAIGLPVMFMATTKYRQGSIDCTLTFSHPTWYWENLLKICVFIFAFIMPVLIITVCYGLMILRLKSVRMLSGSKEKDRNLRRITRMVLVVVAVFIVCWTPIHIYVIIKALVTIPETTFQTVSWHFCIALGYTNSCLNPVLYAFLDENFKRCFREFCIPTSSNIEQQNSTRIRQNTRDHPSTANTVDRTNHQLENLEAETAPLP

Compound | PCO2, 5 min before administration (SD rats) [mmHg] | PCO2, 5 min after administration (SD rats) [mmHg] | PCO2, 30 min after administration (SD rats) [mmHg] | PCO2, 60 min after administration (SD rats) [mmHg] | PCO2, 120 min after administration (SD rats) [mmHg] | 50% PWT, 30 min after administration [1] [g] | 50% PWT, 60 min after administration [1] [g] | EC50 (μ opioid receptor (MOR)) [nM]
CNc1ccsc1C(=O)NCCC1(c2ccccn2)CCOC2(CCCC2)C1 (stereo not shown) [Example H24, 3-methylamino-thiophene-2-carboxylic acid [2-(9-pyridin-2-yl-6-oxa-spiro[4.5]decan-9-yl)-ethyl]-amide] | 36.77 ± 1.94 | 36.48 ± 1.80 | 33.03 ± 0.72 | 36.27 ± 1.57 | 36.83 ± 1.73 | 11.32 ± 2.35 | 7.29 ± 1.23 | 10.7
Fc1ccc(C2(CCNCc3ccccc3OC(F)(F)F)CCOC3(CCCC3)C2)nc1 (stereo not shown) [Example H21, {2-[9-(5-fluoro-pyridin-2-yl)-6-oxa-spiro[4.5]decan-9-yl]-ethyl}-(2-(trifluoromethoxy)-phenmethyl)-amine] | 36.77 ± 1.78 | 35.48 ± 1.72 | 36.03 ± 1.42 | 37.27 ± 1.94 | 36.83 ± 1.65 | 10.72 ± 2.56 | 8.29 ± 1.06 | 4.02
FC(F)Oc1ccccc1CNCCC1(c2ccccn2)CCOC2(CCCC2)C1 (stereo not shown) [Example H16, (2-difluoromethoxybenzyl)-[2-(9-(pyridin-2-yl)-6-oxaspiro[4.5]decan-9-yl)ethyl]amine] | 35.27 ± 0.43 | 30.48 ± 1.24 | 30.03 ± 0.62 | 31.27 ± 1.2 | 31.83 ± 1.40 | 13.72 ± 0.56 | 10.29 ± 1.06 | 9.06
Cc1c(Cl)cccc1CNCCC1(c2ccccn2)CCOC2(CCCC2)C1 (stereo not shown) [Example H04, (3-chloro-2-methylbenzyl)-[2-(9-(pyridin-2-yl)-6-oxaspiro[4.5]decan-9-yl)ethyl]amine] | – | – | – | – | – | 11.72 ± 0.56 | 8.29 ± 1.06 | 6.05
FC(F)(F)Oc1ccc(Cl)cc1CNCCC1(c2ccccn2)CCOC2(CCCC2)C1 (stereo not shown) [Example H17, (5-chloro-2-trifluoromethoxybenzyl)-[2-(9-(pyridin-2-yl)-6-oxaspiro[4.5]decan-9-yl)ethyl]amine] | 34.77 ± 1.88 | 35.48 ± 1.74 | 34.03 ± 1.69 | 34.27 ± 1.4 | 34.83 ± 1.15 | 8.85 ± 1.59 | 7.91 ± 1.43 | 8.68
FC(F)Oc1ccsc1CNCCC1(c2ccccn2)CCOC2(CCCC2)C1 (stereo not shown) [Example H18, ((3-difluoromethoxythiophen-2-yl)methyl)-[2-(9-(pyridin-2-yl)-6-oxaspiro[4.5]decan-9-yl)ethyl]a mine] | 33.77 ± 0.88 | 35.48 ± 1.54 | 34.03 ± 0.69 | 36.27 ± 1.4 | 34.83 ± 1.45 | 7.85 ± 0.54 | 6.91 ± 0.33 | 7.32
